Measurements published in ChEMBL document CHEMBL5385884, “Expanding role of CXCR2 and therapeutic potential of CXCR2 antagonists in inflammatory diseases and cancers” (Eur J Med Chem, 2023).

Legend:
[1] = molecular target: T1, C-X-C chemokine receptor type 2 (Homo sapiens, UniProt P25025); assay: Antagonist activity at CXCL8-activated CXCR2 (unknown origin) overexpressed in human U2OS cells preincubated for 30 mins followed by CXCL8 addition measured after 5 hrs by beta-lactamase reporter gene assay; format: functional, cell-based
T1 sequence (P25025 whole entry): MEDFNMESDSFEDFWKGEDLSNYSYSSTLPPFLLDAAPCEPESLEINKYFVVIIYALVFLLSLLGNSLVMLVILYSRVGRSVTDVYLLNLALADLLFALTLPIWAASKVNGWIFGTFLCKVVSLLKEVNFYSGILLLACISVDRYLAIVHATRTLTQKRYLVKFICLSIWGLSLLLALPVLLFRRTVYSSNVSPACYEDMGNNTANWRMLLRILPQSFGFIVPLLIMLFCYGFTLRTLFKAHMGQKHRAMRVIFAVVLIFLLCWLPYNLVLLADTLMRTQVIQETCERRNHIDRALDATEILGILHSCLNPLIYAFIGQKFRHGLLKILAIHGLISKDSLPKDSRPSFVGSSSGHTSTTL

[2] = molecular target: C-X-C chemokine receptor type 4 (Homo sapiens, UniProt P61073); assay: Antagonist activity at SDF-1-activated CXCR4 (unknown origin) overexpressed in human U2OS cells preincubated for 30 mins followed by SDF-1 addition measured after 5 hrs by beta-lactamase reporter gene assay; format: functional, cell-based
[3] = molecular target: T1, C-X-C chemokine receptor type 2; assay: Antagonist activity at CXCR2 (unknown origin); format: functional
[4] = Effective half life in human; format: ADME; settings: read-out: t1/2eff (converted)
[5] = Intrinsic clearance in human hepatocytes measured per million cells at 100 uM incubated upto 90 mins by LCMS/MS analysis; format: ADME, cell-based, Hepatocyte; settings: read-out: CLH

C-X-C chemokine receptor type 4, sequence (P61073 whole entry): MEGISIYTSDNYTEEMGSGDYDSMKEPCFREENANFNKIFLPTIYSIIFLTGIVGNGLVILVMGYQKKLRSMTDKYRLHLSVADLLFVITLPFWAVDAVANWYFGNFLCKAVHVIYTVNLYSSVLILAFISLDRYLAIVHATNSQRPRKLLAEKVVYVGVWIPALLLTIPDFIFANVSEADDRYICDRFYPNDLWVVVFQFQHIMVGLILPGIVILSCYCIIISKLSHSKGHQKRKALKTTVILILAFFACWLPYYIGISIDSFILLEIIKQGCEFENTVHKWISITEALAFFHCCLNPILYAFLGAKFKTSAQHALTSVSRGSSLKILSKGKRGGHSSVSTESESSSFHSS

Row | Compound | IC50 [1] [µM] | IC50 [2] [µM] | IC50 [3] [µM] | also measured
1 | COc1cc(NS(=O)(=O)c2cccc3nsnc23)c2ncccc2c1 | 0.36 | 0.59 | – | –
2 | C[C@@H](C(=O)NS(C)(=O)=O)c1ccc(OS(=O)(=O)C(F)(F)F)cc1 [LADARIXIN] | – | – | 0.0007 | –
3 | COc1cc(NS(=O)(=O)c2ccc(C)cc2)c2ncccc2c1 | 0.4 | – | – | –
4 | C[C@@H](Oc1cc(NS(=O)(=O)N2CCC2)nc(SCc2cccc(F)c2F)n1)[C@@H](O)CO | – | – | – | half-life [4]: 4 h; hepatocyte CLint at 100 µM [5]: < 5 µL/min/1e6 cells
5 | O=C(Nc1ccc(F)cc1)c1cnc(SCc2cc(OC(F)(F)F)ccc2B(O)O)nc1 [SX-682] | – | – | 0.022 | –
6 | CC(=O)c1c(C)oc2c1cc(NS(=O)(=O)c1ccc(C(C)(C)C)cc1)c1ccccc12 | – | > 50 | – | –
